Measurements: article PMC12047801, “Disrupting the OTUD4-USP7 deubiquitinase complex to suppress herpesvirus replication: a novel antiviral strategy” (PLOS Pathogens, 2025)
Several values for one entry are separate records, joined by “and”; a condition that tells them apart may be missing. Equal entries are not always repeated. Where two headings read alike, the source gives them in different places. Where a SMILES comes first, the peptide text is derived from it.

Experiments:
KSHV lytic replication = details: cited from earlier work
From the text: In KSHV-associated cancers, such as Kaposi’s sarcoma (KS), tumor cells predominantly display latent viral infection, while spontaneous reactivation takes place in only 1–3% of infected cells. […] Despite the low percentage of lytic cells, lytic replication plays a critical role in KS pathogenesis. Firstly, the production and release of infectious KSHV particles sustain the latently infected cell population by compensating for episomal loss duri ... || KSHV is the etiological agent of Kaposi’s sarcoma (KS) and primary effusion lymphoma (PEL), and contributes to other malignancies such as multicentric Castleman’s disease (MCD). […] Therefore, KSHV antiviral treatments, including those aimed at inhibiting lytic replication, are actively being developed. […] MMV1645152, identified from the Medicines for Malaria Venture (MMV) Pandemi ...

[1] = tested on: Kaposi's sarcoma (KS) progression; details: cited from earlier work
[2] = tested on: KSHV lytic reactivation in SLK.iBAC-GFP cells; format: cell-based; details: for IC50: Dox + sodium butyrate, mean ± s.d. of N = 3
Procedure: (A) Graphical illustration showing the rationale underlying our peptide design. (B) Surface Plasmon Resonance (SPR) analysis assessing the interaction of the USP7-TRAF domain with the designed peptides p2 and p8. (C) SLK.iBAC-GFP cells were induced with doxycycline (Dox, 1 μg/mL) and sodium butyrate (0.5 mM) in the presence of the Tat fusion peptides (100 μM). All the peptides were fused to an N-terminal Tat47-57 peptide ([…]) via a flexible GG linker. The supernatants containing infectious virions were collected 48 h post-induction and used to infect HEK293T cells. KSHV infectious units were calculated based on the percentage of GFP-positive cells determined by flow cytometry. Data are mean ± s.d. of N = 3 independent biological replicates. (D) SLK.iBAC-GFP cells were induced with doxycycline (Dox, 1 μg/mL) and sodium butyrate (0.5 mM) in the presence of increasing amount of p8 (0, 10, 50, 100 μM). KSHV infectious units were determined 48 h post-induction. Data are mean ± s.d. of N = 3 independent biological replicates. […] Data are mean ± s.d. of N = 3 independent biological replicates. […] Cell viability was assessed by measuring ATP levels 48 h post-induction. Data are mean ± s.d. of N = 3 independent biological replicates.
Peptides p1 to p12 (S1A Fig) were synthesized by Sangon Biotech (Shanghai, China) with 95% purity. The Tat-fused peptides in Fig 1C consisted of the corresponding peptides conjugated to the Tat47-57 peptide ([…]) and two glycine linker residues (QYAOBIO, Suzhou, China). The peptides p8-DRI (nssqsasqnvpprrrqrrkkrGy) and p2-DRI (iesndedavepprrrqrrkkrGy) were synthesized using D-amino acids in a retro-reversed sequence with 95% purity (QYAOBIO, Suzhou, China). The peptide p8-m ([…]) was synthesized with 95% purity (QYAOBIO, Suzhou, China). All the peptides were acetylated at the N-terminus and amidated at the C-terminus to mimic the native peptide structure. The peptides were dissolved in PBS to prepare 1 mM stock solutions for in vitro experiments and 5 mg/ml stock solutions for in vivo experiments.
SLK.iBAC-GFP cells were treated with Dox (1 μg/ml) and sodium butyrate (0.5 mM) to induce lytic reactivation in the presence of indicated peptides (100 μM). The supernatants were collected at the specified time points and used to infect HEK293T cells at appropriate dilutions. The infected cells were collected, fixed, and analyzed by flow cytometry 24 h post-infection. FlowJo 10.0 software was used to analyze the data, and KSHV infectious units were quantified based on the percentage of GFP-positive cells.

USP7-TRAF domain = target: T1, USP7-TRAF domain (Homo sapiens, UniProt Q93009); assay: Surface plasmon resonance (SPR) analysis of peptide binding to USP7-TRAF
T1 construct: The TRAF domain of human and murine USP7 (1-208 aa) was subcloned into pGEX-6p-1; GST (N); made in house; host or cells: E. coli BL21 (DE3)
T1 sequence (Q93009 1-208): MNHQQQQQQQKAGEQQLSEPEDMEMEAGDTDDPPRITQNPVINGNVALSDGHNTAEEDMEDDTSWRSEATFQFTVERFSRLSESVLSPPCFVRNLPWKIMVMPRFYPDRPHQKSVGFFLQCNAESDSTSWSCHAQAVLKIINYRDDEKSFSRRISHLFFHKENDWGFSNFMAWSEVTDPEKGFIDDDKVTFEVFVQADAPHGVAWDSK

[3] = tested on: lung inflammation in MHV68-infected C57BL/6 mice; format: in vivo; details: Fig 5F, 5 mg/kg, 5 days post-infection, vs vehicle
Procedure: Fig 5 P8-DRI restricts MHV68 Infection in vivo. (A-B) MLF cells were infected with MHV68 (MOI, 0.01) and treated with the indicated peptides (100 µM). Viral titer was determined by plaque assays 48 h post-infection (A). Viral gene expression was assessed by RT-qPCR (B). Data are mean ± s.d. of N = 3 independent biological replicates. […] Data are mean ± s.d. of N = 3 independent biological replicates. (D-E) C57BL/6 mice were intranasally inoculated with MHV68 (4000 PFU) and administrated with p8-DRI (5 mg/kg of body weight) or vehicle control (n = 6 per group). Viral loads in lung tissues were quantified at 5 days post-infection (D). Viral gene expression in lung tissues was measured by RT-qPCR at 5 days post-infection (E). Data are mean ± s.d. of N = 6 independent biological replicates. […] Viral titers in lung tissues were determined at 5 days post-infection (G). Viral gene expression in lung tissues was assessed by RT-qPCR (H). […] (I) H&E staining of lung tissue sections from MHV68-infected Otud4^^fl/fl Cre-ERT2^-/- and Otud4^^fl/fl Cre-ERT2^+/- mice treated with p8-DRI or vehicle control, analyzed at 5 days post-infection. […]
Mouse lung tissue samples were fixed in 10% formalin solution (Sigma) overnight. […] The tissue sections were stained using standard H&E staining protocols and analyzed microscopically.

MHV68 in C57BL/6 mice [4] = format: in vivo; details: Fig 5E, 5 mg/kg, 5 days post-infection
Procedure: Fig 5 P8-DRI restricts MHV68 Infection in vivo. (A-B) MLF cells were infected with MHV68 (MOI, 0.01) and treated with the indicated peptides (100 µM). Viral titer was determined by plaque assays 48 h post-infection (A). Viral gene expression was assessed by RT-qPCR (B). Data are mean ± s.d. of N = 3 independent biological replicates. […] Data are mean ± s.d. of N = 3 independent biological replicates. (D-E) C57BL/6 mice were intranasally inoculated with MHV68 (4000 PFU) and administrated with p8-DRI (5 mg/kg of body weight) or vehicle control (n = 6 per group). Viral loads in lung tissues were quantified at 5 days post-infection (D). Viral gene expression in lung tissues was measured by RT-qPCR at 5 days post-infection (E). Data are mean ± s.d. of N = 6 independent biological replicates. (F) H&E staining of lung tissue sections from MHV68-infected mice treated with p8-DRI or vehicle 5 days post-infection. Scale bars, 500 µm (left) and 100 µm (right). […] Viral titers in lung tissues were determined at 5 days post-infection (G). Viral gene expression in lung tissues was assessed by RT-qPCR (H). […] (I) H&E staining of lung tissue sections from MHV68-infected Otud4^^fl/fl Cre-ERT2^-/- and Otud4^^fl/fl Cre-ERT2^+/- mice treated with p8-DRI or vehicle control, analyzed at 5 days post-infection. […]

[5] = tested on: lung pathology in MHV68-infected Otud4fl/fl Cre-ERT2 mice; format: in vivo; details: for Histological score of lungs: Fig. 5I
MHV68 in C57BL/6 mice [6] = assay: Viral loads/titers in lungs of MHV68-infected C57BL/6 mice; format: in vivo; details: 5 days post-infection
[7] = tested on: MHV68 in Otud4fl/fl Cre-ERT2 mice; format: in vivo; details: 5 mg/kg
[8] = tested on: interaction between OTUD4 and USP7-TRAF; assay: GST pull-down competition assay, human USP7-TRAF and FLAG-OTUD4; format: binding; details: 100 μM, 4 h

CCc1cc(-c2n[nH]c(C)c2-c2ccc3c(c2)OCCO3)c(O)cc1O [CCT018159]
Inhibition of KSHV lytic replication and virion production (in words) (KSHV lytic replication; UAP56 ATPase inhibitor): successfully blocks KSHV lytic replication and infectious virion production

Nc1nc(O)c2ncn(COC(CO)CO)c2n1 [Ganciclovir]
Prevention of KS progression (in words) [1]: remarkable efficacy in randomized clinical trials for preventing KS progression
Inhibition of KSHV lytic replication (in words) (KSHV lytic replication; nucleoside analogue): inhibits KSHV lytic replication

Nc1nc(O)c(Br)c(-c2cccc(Cl)c2)n1 [MMV1645152]
Inhibition of KSHV lytic replication (in words) (KSHV lytic replication): effectively blocking KSHV lytic replication

Cc1c(O)cccc1C(=O)N[C@@H](CSc1ccccc1)[C@H](O)CN1C[C@H]2CCCC[C@H]2C[C@H]1C(=O)NC(C)(C)C [Nelfinavir]
Inhibition of KSHV virion production (in words) (KSHV lytic replication): prevents mature virion production

CC[C@@H](C)[C@@H](NC(C)=O)C(=O)N[C@H](CCC(=O)O)C(=O)N[C@H](CO)C(=O)N[C@H](CC(N)=O)C(=O)N[C@H](CC(=O)O)C(=O)N[C@H](CCC(=O)O)C(=O)N[C@H](CC(=O)O)C(=O)N[C@H](C)C(=O)N[C@@H](C(=O)N[C@H](CCC(=O)O)C(=O)N1CCC[C@@H]1C(=O)N1CCC[C@@H]1C(=O)N[C@H](CCCNC(=N)N)C(=O)N[C@H](CCCNC(=N)N)C(=O)N[C@H](CCCNC(=N)N)C(=O)N[C@H](CCC(N)=O)C(=O)N[C@H](CCCNC(=N)N)C(=O)N[C@H](CCCNC(=N)N)C(=O)N[C@H](CCCCN)C(=O)N[C@H](CCCCN)C(=O)N[C@H](CCCNC(=N)N)C(=O)NCC(=O)N[C@H](Cc1ccc(O)cc1)C(N)=O)C(C)C [p2-DRI] (HELM PEPTIDE1{[ac].[dI].[dE].[dS].[dN].[dD].[dE].[dD].[dA].[dV].[dE].[dP].[dP].[dR].[dR].[dR].[dQ].[dR].[dR].[dK].[dK].[dR].G.[dY].[am]}$$$$V2.0)
IC50 ([2]; SLK.iBAC-GFP cells): 67.4 ± 34.1 µM

CC(=O)N[C@H](CC(N)=O)C(=O)N[C@H](CO)C(=O)N[C@H](CO)C(=O)N[C@H](CCC(N)=O)C(=O)N[C@H](CO)C(=O)N[C@H](C)C(=O)N[C@H](CO)C(=O)N[C@H](CCC(N)=O)C(=O)N[C@H](CC(N)=O)C(=O)N[C@@H](C(=O)N1CCC[C@@H]1C(=O)N1CCC[C@@H]1C(=O)N[C@H](CCCNC(=N)N)C(=O)N[C@H](CCCNC(=N)N)C(=O)N[C@H](CCCNC(=N)N)C(=O)N[C@H](CCC(N)=O)C(=O)N[C@H](CCCNC(=N)N)C(=O)N[C@H](CCCNC(=N)N)C(=O)N[C@H](CCCCN)C(=O)N[C@H](CCCCN)C(=O)N[C@H](CCCNC(=N)N)C(=O)NCC(=O)N[C@H](Cc1ccc(O)cc1)C(N)=O)C(C)C [p8-DRI] (HELM PEPTIDE1{[ac].[dN].[dS].[dS].[dQ].[dS].[dA].[dS].[dQ].[dN].[dV].[dP].[dP].[dR].[dR].[dR].[dQ].[dR].[dR].[dK].[dK].[dR].G.[dY].[am]}$$$$V2.0)
IC50 ([2]; SLK.iBAC-GFP cells): 9.23 ± 1.29 µM
Binding affinity for USP7-TRAF relative to p8 (in words) (USP7-TRAF domain; N = 3 (S5H Fig)): remained comparable to that of p8
Lung inflammation and immune cell infiltration (in words) [3]: less inflammation and immune cell infiltration in the lungs
MHV68 viral gene transcription (ORF50, ORF9, ORF25) in lungs (in words) (MHV68 in C57BL/6 mice [4]): significantly reduced
Histological score of lungs ([5]; OTUD4 KO mice, replicate 1): 1
Histological score of lungs ([5]; OTUD4 KO mice, replicate 2): 1
Histological score of lungs ([5]; OTUD4 KO mice, replicate 3): 1
Histological score of lungs ([5]; OTUD4 KO mice, replicate 4): 2
Histological score of lungs ([5]; OTUD4 KO mice, replicate 5): 3
Histological score of lungs ([5]; OTUD4 WT mice, replicate 1): 1
Histological score of lungs ([5]; OTUD4 WT mice, replicate 2): 1
Histological score of lungs ([5]; OTUD4 WT mice, replicate 3): 1
Histological score of lungs ([5]; OTUD4 WT mice, replicate 4): 2
Histological score of lungs ([5]; OTUD4 WT mice, replicate 5): 3
Viral pathology in OTUD4-replete mice (in words) ([5]; Otud4fl/fl Cre-ERT2-/-, 5 mg/kg, vs vehicle): reduced viral pathology
Viral titers in lung tissues (in words) (MHV68 in C57BL/6 mice [6]; Fig 5D, 5 mg/kg, vs vehicle): lower viral titers in lung tissues
Viral loads in lung tissues (MHV68 in C57BL/6 mice [6]; Fig. 5D, 5 mg/kg p8-DRI, MHV68 4000 PFU intranasal, single animals, one line per mouse (n = 6)): 12.8424 and 18.8481 and 2.1041 and 7.7972 and 13.617 and 0.6389
Antiviral effect in OTUD4-deficient mice (in words) ([7]; Figs 5G-5I, Otud4fl/fl Cre-ERT2+/- + tamoxifen): abolished in OTUD4-deficient mice
Viral titers in lungs of OTUD4-replete mice (in words) ([7]; Otud4fl/fl Cre-ERT2-/-, vs vehicle): lower viral titers in lung tissues

Ac-YGRKKRRQRRRGGEVADEDNSEI-NH2 [p2]
IC50, KSHV lytic reactivation (in words) ([2]; SLK.iBAC-GFP cells, Tat-fused peptide): could not be determined due to its low antiviral activity
Inhibition of KSHV lytic reactivation (in words) ([2]; Tat-fused peptides, 100 μM or dose series, 48 h post-induction): no significant inhibition
Disruption of OTUD4/USP7-TRAF interaction (in words) [8]: failed to disrupt the interaction between USP7-TRAF and OTUD4
Binding to the USP7-TRAF domain (in words) (USP7-TRAF domain): specifically bound to the USP7-TRAF domain
